Test results reported in patent publication EP0193189A1, “Novel compound, its production and insecticidal and acaricidal composition containing it as an active ingredient” (SUMITOMO CHEMICAL COMPANY, LIMITED, priority 1985, dated 1986).
In brackets after ≈: the same amount, converted by molar mass.

system: resistant strain of green rice leafhopper (Nephotetix cincticeps); assay: Test Example 3: rice seedling dip test, resistant green rice leafhopper; assay type: in vivo; conditions: Nephotettix cincticeps, 24 h, rice seedlings dipped 1 minute; adults of resistant strain; after one day; read-out: LC50 value (ppm)
Experimental: The emulsifiable concentrates of the following present compounds and control compounds obtained according to Formulation example 2 were each diluted with water to a prescribed concentration, and rice seedlings (about 12 cm in length) were dipped for 1 minute in the resulting aqueous dilute solutions. After air-drying, the seedlings were placed in test tube, and 10 adults of a resistant strain of green rice leafhopper (Nephotetix cincticeps) were liberated in the tube. After one day, the dead and alive of the adults were examined to obtain LC50 (50% lethal concentration)(two replications).

Row | Compound | LC50
1 | CCC(C)c1ccccc1OC(=O)NC (stereo not shown) [(C), BPMC, reference compound] | 190 mg/L (≈ 917 µM)
2 | C#CC(C)(CCCc1ccc(F)c(Oc2ccc(C)cc2)c1)c1ccc(OCC)cc1 (stereo not shown) [(33)] | 23 mg/L (≈ 55.2 µM)
3 | C#CC(C)(CCCc1cccc(Oc2ccccc2)c1)c1ccc(CC)cc1 (stereo not shown) [(23)] | 40 mg/L (≈ 109 µM)
4 | C#CC(C)(CCCc1ccc(F)c(Oc2ccccc2)c1)c1ccc(Cl)cc1 (stereo not shown) [(10)] | 32 mg/L (≈ 81.4 µM)

system: carmine spider mite (Tetranychus cinnabarinus); assay: Test Example 8: carmine spider mite on potted kidney bean, degree of damage; assay type: in vivo; conditions: 500 ppm spray 10 ml/pot plus 2 ml soil treatment; after 8 days
Experimental: The female adults of carmine spider mite (Tetranychus cinnabarinus) were put at a rate of 10 adults/leaf on the leaves of potted kidney bean (at the primordial leaf stage) which had elapsed 7 days after sowing, and placed in a constant-temperature room kept at 25°C. After 6 days, the 200-fold aqueous dilute solutions (corresponding to 500 ppm), prepared from the emulsifiable concentrates of the following present compounds and control compounds prepared according to Formulation example 2, were each sprayed at a rate of 10 ml/pot on a turn table. At the same time, the soil in the pot was treated with 2 ml of each aqueous solution. After 8 days, the degree of damage of the plant by the mite was examined.
Criteria of the effect: • - : No damage is observed. • + : Slight damage is observed. • ++: The same damage as in the untreated plot is observed.

Row | Compound | Degree of damage
5 | C#CC(C)(CCCc1cccc(Oc2ccccc2)n1)c1ccc(OCC)cc1 (stereo not drawn) [(18), 3-(4-ethoxyphenyl)-3-methyl-6-(6-phenoxypyridin-2-yl)-l-hexyne] | - ~ +
6 | Cc1cc(Cl)ccc1N=CN(C)C [(E), Chlordimeform, reference compound] | - ~ +

system: houseflies (Musca domestica) of WHO strains; assay: Test Example 6: housefly filter paper and sucrose bait test; assay type: in vivo; conditions: 0.7 ml on filter paper with sucrose bait, adult females, after 48 hours, read-out: LC50 value (ppm)
Experimental: On the bottom of a polyethylene cup of 5.5 cm- in diameter was placed a piece of filter paper of the same size as the bottom, and 0.7 ml of a test solution, prepared by diluting the emulsifiable concentrates of the following present compounds and control compounds prepared according to Formulation example 2 to a prescribed concentration with water, was added dropwise to the filter paper. Thirty milligrams of sucrose were uniformly placed on the filter paper as bait. Thereafter, 10 adult female houseflies (Musca domestica) of WHO strains were liberated in the cup, which was then covered with a lid. After 48 hours, the dead and alive were examined to obtain LC50 value (50% lethal concentration) (two replications).

Row | Compound | LC50
7 | C#CC(C)(CCCc1ccc(F)c(Oc2ccccc2)c1)c1ccc(C(F)(F)F)cc1 (stereo not shown) [(37)] | 13 mg/L (≈ 30.5 µM)

system: common mosquito (Culex pipiens pallens); assay: Test Example 1: common mosquito larvae in diluted emulsifiable concentrate, mortality and emergence inhibition; assay type: in vivo; conditions: 3.5 ppm; 20 last instar larvae; after one day; 1440 min
Experimental: The emulsifiable concentrates of the following present compounds obtained according to Formulation example 2 were each diluted with water so as to obtain respective aqueous solutions containing 3.5 ppm of said compounds, respectively. One hundred ml of thus diluted aqueous solutions were poured into respective polyethylene cups of 180 ml volume, and 20 of the last instar larvae of common mosquito (Culex pipiens pallens) were liberated thereto. After one day, the dead or alive of the larvae were examined.
Thereafter, the feed was added to respective cups and the number of emerged pupae of the respective cups was counted when all the pupae of no treatment group had emerged to calculate the inhibitory ratios of the emergence.
The mortality and the inhibitory ratio of the emergence are shown according to the following three criteria: • mortality: A; 90% or more, • B; less than 90% to 10%, • C; less than 10%. • inhibitory: A; 90% or more, ratio of • emergence B; less than 90% to 80% • C; less than 80%.

Row | Compound | Mortality
8 | C#CC(C)(CCCc1ccc(F)c(Oc2ccccc2)c1)c1ccc(C(F)(F)F)cc1 (stereo not shown) [(37)] | A (90% or more)

same assay, conditions: 3.5 ppm; counted when all pupae of no treatment group had emerged

Row | Compound | Inhibitory ratio of emergence
9 | C#CC(C)(CCCc1ccc(F)c(Oc2ccccc2)c1)c1ccc(C(F)(F)F)cc1 (stereo not shown) [(37)] | A (90% or more)

same assay, conditions: Culex pipiens, 24 h; 3.5 ppm; 20 last instar larvae; after one day; read-out: Mortality

Row | Compound | mortality at 3.5 ppm
10 | C#CC(CC)(CCCc1ccc(F)c(Oc2ccccc2)c1)c1ccc(Cl)cc1 (stereo not shown) [(41)] | > 90%
11 | C=CC(C)(CCCc1ccc(F)c(Nc2ccccc2)c1)c1ccc(OCC)cc1 (stereo not shown) [(31)] | > 90%
12 | C#CC(CCCc1cccc(Oc2ccccc2)c1)c1ccc(OCC)cc1 (stereo not shown) [(28)] | > 90%
13 | C#CC(C)(CCCc1cccc(Oc2ccccc2)n1)c1ccc(OCC)cc1 (stereo not drawn) [(18), 3-(4-ethoxyphenyl)-3-methyl-6-(6-phenoxypyridin-2-yl)-l-hexyne] | > 90%
14 | C#CC(CCCC)(CCCc1ccc(F)c(Oc2ccccc2)c1)c1ccc(OCC)cc1 (stereo not shown) [(42)] | 10 to 90%
15 | C#CC(CC)(CCCc1ccc(F)c(Oc2ccccc2)c1)c1ccc(OCC)cc1 (stereo not shown) [(29)] | > 90%
16 | C#CC(C)(CCCc1cccc(Oc2ccccc2)c1)c1ccc2c(c1)OCO2 (stereo not shown) [(14)] | > 90%
17 | C=CC(C)(CCCc1cccc(Oc2ccccc2)n1)c1ccc(OCC)cc1 (stereo not shown) [(19)] | 10 to 90%
18 | C#CC(C)(CCCc1ccc(F)c(Oc2ccc(C)cc2)c1)c1ccc(OCC)cc1 (stereo not shown) [(33)] | > 90%
19 | C#CC(CC)(CCCc1cccc(Oc2ccccc2)c1)c1ccc(OCC)cc1 (stereo not shown) [(32)] | > 90%
20 | C#CC(C)(CCCc1cccc(Oc2ccccc2)c1)c1ccc(CC)cc1 (stereo not shown) [(23)] | > 90%
21 | C#CC(C)(CCCc1cccc(Oc2ccccc2)n1)c1ccc(OC)cc1 (stereo not drawn) [(44), 3-(4-methoxyphenyl)-3-methyl-6-(6-phenoxy-pyridin-2-yl)-l-hexyne] | 10 to 90%
22 | C#CC(C)(CCCc1ccc(F)c(Oc2ccccc2)c1)c1ccc(Cl)cc1 (stereo not shown) [(10)] | > 90%
23 | C#CC(CC)(CCCc1cccc(Oc2ccccc2)c1)c1ccc(Cl)cc1 (stereo not shown) [(26)] | > 90%

same assay, conditions: Culex pipiens; 3.5 ppm; counted when all pupae of no treatment group had emerged; read-out: Inhibitory ratio of emergence

Row | Compound | pest or weed control at 3.5 ppm
24 | C#CC(CC)(CCCc1ccc(F)c(Oc2ccccc2)c1)c1ccc(Cl)cc1 (stereo not shown) [(41)] | > 90%
25 | C=CC(C)(CCCc1ccc(F)c(Nc2ccccc2)c1)c1ccc(OCC)cc1 (stereo not shown) [(31)] | > 90%
26 | C#CC(CCCc1cccc(Oc2ccccc2)c1)c1ccc(OCC)cc1 (stereo not shown) [(28)] | > 90%
27 | C#CC(C)(CCCc1cccc(Oc2ccccc2)n1)c1ccc(OCC)cc1 (stereo not drawn) [(18), 3-(4-ethoxyphenyl)-3-methyl-6-(6-phenoxypyridin-2-yl)-l-hexyne] | > 90%
28 | C#CC(CCCC)(CCCc1ccc(F)c(Oc2ccccc2)c1)c1ccc(OCC)cc1 (stereo not shown) [(42)] | > 90%
29 | C#CC(CC)(CCCc1ccc(F)c(Oc2ccccc2)c1)c1ccc(OCC)cc1 (stereo not shown) [(29)] | > 90%
30 | C#CC(C)(CCCc1cccc(Oc2ccccc2)c1)c1ccc2c(c1)OCO2 (stereo not shown) [(14)] | > 90%
31 | C=CC(C)(CCCc1cccc(Oc2ccccc2)n1)c1ccc(OCC)cc1 (stereo not shown) [(19)] | > 90%
32 | C#CC(C)(CCCc1ccc(F)c(Oc2ccc(C)cc2)c1)c1ccc(OCC)cc1 (stereo not shown) [(33)] | > 90%
33 | C#CC(CC)(CCCc1cccc(Oc2ccccc2)c1)c1ccc(OCC)cc1 (stereo not shown) [(32)] | > 90%
34 | C#CC(C)(CCCc1cccc(Oc2ccccc2)c1)c1ccc(CC)cc1 (stereo not shown) [(23)] | > 90%
35 | C#CC(C)(CCCc1cccc(Oc2ccccc2)n1)c1ccc(OC)cc1 (stereo not drawn) [(44), 3-(4-methoxyphenyl)-3-methyl-6-(6-phenoxy-pyridin-2-yl)-l-hexyne] | > 90%
36 | C#CC(C)(CCCc1ccc(F)c(Oc2ccccc2)c1)c1ccc(Cl)cc1 (stereo not shown) [(10)] | > 90%
37 | C#CC(CC)(CCCc1cccc(Oc2ccccc2)c1)c1ccc(Cl)cc1 (stereo not shown) [(26)] | > 90%

system: tobacco cutworms (Spodoptera litura); assay: Test Example 2: tobacco cutworm larvae on treated artificial feed; assay type: in vivo; conditions: 150 ppm solution, 2 ml in 13 g artificial feed; 4th instar larvae; six days after; 8640 min
Text: The emulsifiable concentrates of the following present compounds obtained according to Formulation example 2 were each diluted with water to obtain respective 667 times dilution aqueous solutions (corresponding to 150 ppm) containing said compounds, respectively. Two ml of thus diluted solutions were impregnated into the artificial feeds (13 g) for tobacco cutworms (Spodoptera litura) and thus prepared feeds were placed in polyethylene cups of 11 cm in diameter, respectively. Ten of the 4th instar larvae were liberated thereon.
Six days after, the dead and alive of the larvae were examined to calculate the mortality (two replications).

Row | Compound | Mortality (%)
38 | C#CC(C)(CCCc1ccc(F)c(Oc2ccccc2)c1)c1ccc(C(F)(F)F)cc1 (stereo not shown) [(37)] | 100%

same assay, conditions: Spodoptera litura, 144 h; 150 ppm solution, 2 ml in 13 g artificial feed; 4th instar larvae; six days after; read-out: Mortality (%)

Row | Compound | mortality at 150 ppm
39 | C=CC(C)(CCCc1ccc(F)c(Nc2ccccc2)c1)c1ccc(OCC)cc1 (stereo not shown) [(31)] | 100%
40 | C#CC(C)(CCCc1cccc(Oc2ccccc2)n1)c1ccc(OCC)cc1 (stereo not drawn) [(18), 3-(4-ethoxyphenyl)-3-methyl-6-(6-phenoxypyridin-2-yl)-l-hexyne] | 100%
41 | C#CC(CCCC)(CCCc1ccc(F)c(Oc2ccccc2)c1)c1ccc(OCC)cc1 (stereo not shown) [(42)] | 100%
42 | C#CC(CC)(CCCc1ccc(F)c(Oc2ccccc2)c1)c1ccc(OCC)cc1 (stereo not shown) [(29)] | 100%
43 | C#CC(C)(CCCc1cccc(Oc2ccccc2)c1)c1ccc2c(c1)OCO2 (stereo not shown) [(14)] | 100%
44 | C#CC(C)(CCCc1ccc(F)c(Oc2ccc(C)cc2)c1)c1ccc(OCC)cc1 (stereo not shown) [(33)] | 100%
45 | C#CC(C)(CCCc1cccc(Oc2ccccc2)c1)c1ccc(CC)cc1 (stereo not shown) [(23)] | 100%
46 | C#CC(C)(CCCc1cccc(Oc2ccccc2)n1)c1ccc(OC)cc1 (stereo not drawn) [(44), 3-(4-methoxyphenyl)-3-methyl-6-(6-phenoxy-pyridin-2-yl)-l-hexyne] | 100%
47 | C#CC(C)(CCCc1ccc(F)c(Oc2ccccc2)c1)c1ccc(Cl)cc1 (stereo not shown) [(10)] | 100%

system: brown rice planthoppers (Nila^parvata luqens); assay: Test Example 7: spray on potted rice plants, brown rice planthopper, residual effect; assay type: in vivo; conditions: 20 h; 100 ppm spray, 20 ml/2 pots; residual effect; twenty hours after liberation; read-out: Mortality (%) liberated 4 days after application
Experimental: The emulsifiable concentrates of the following compounds and control compounds obtained according to Formulation example 2 were each diluted with water one thousand times (corresponding to 100 ppm) and each of thus prepared solutions was sprayed at the rate of 20 ml/2 pots to the rice plant seedlings planted in Wagner pots having a surface area of one ten thousandth are. After air-drying, the treated plants were covered with the iron wire cages, and about 15 adults of brown rice planthoppers (Nila^parvata luqens) were liberated thereto. Further, about 15 adults thereof were also liberated thereto 4 days after the application to examine the residual effects. Twenty hours after each liberation, the dead and alive adults were examined to calculate the mortality.

Row | Compound | mortality at 100 ppm
48 | CCC(C)c1ccccc1OC(=O)NC (stereo not shown) [(C), BPMC, reference compound] | 6%

same assay, conditions: 20 h; 100 ppm spray, 20 ml/2 pots; twenty hours after liberation; read-out: Mortality (%) liberated just after air-drying

Row | Compound | mortality at 100 ppm
49 | CCC(C)c1ccccc1OC(=O)NC (stereo not shown) [(C), BPMC, reference compound] | 100%
